Experimental data as given in patent publication US20260232684A1, “FLT3 INHIBITORS AND METHODS OF USING THE SAME” (BIOVENTURES, LLC, priority 2023, published 2026).

What was measured:
[1] = tested on: normal donor bone marrow mononuclear cells (BM-MNC); assay: Colony forming unit assay of normal bone marrow
Method: FIG. 2. […] Normal bone marrow mononuclear cells (BM-MNC) were purchased from StemCell Technologies. 30,000 cells were plated in methylcellulose with increasing concentrations of either gilteritinib, 1, or 2. Blast forming unit-erythroid (BFU-E) and colony forming unit-granulocyte (CFU-G) were counted after 14 days incubation. Assay was completed in triplicate with three independent blood donors. Data shown is cumulated from all independent experiments. Error bars show one standard deviation and p values compared to control were calculated using a Student's t-test. NS indicates an insignificant p value, * indicates p value≤0.05, ** indicates p value≤0.01, *** indicates p value≤0.001, **** indicates p value≤0.0001
Bone marrow mononuclear cells (BM-MNC) of healthy donors (n=3) were purchased from StemCell Technologies (Vancouver, Canada). Cells were plated in a 35 mm dish in triplicate with methylcellulose medium at a concentration previously determined to form approximately 100 total colonies, usually 30,000 cells/mL and containing the appropriate amount of drug. Dishes were incubated for 14-15 days and visually assessed for erythrocyte burst-forming units and granulocyte-macrophage colony-forming units.

[2] = tested on: Molm-14 F691L cells stably expressing firefly luciferase; assay: Circulating tumor model, Molm14 F691L luciferase; assay type: in vivo; details: mice
Method: FIG. 7. […] Molm14 F691L stably expressing FLuc9 were engrafted in mice through tail vein injection. Mice were imaged once every three days.
Molm-14 F691L cells stably expressing firefly luciferase were injected into the tail vein of NSG mice and tumor growth was monitored through bioluminescence.

Molm14 D835Y cells = assay: Cell viability assay (CellTiter GLO), Molm14 D835Y; assay type: cell-based, human; details: 48 hours
Method: (§1) FIG. 1. […] Cells were treated with inhibitor at increasing log doses (0.1 nM-10 μM) for 48 hours. Cell viability was analyzed through CellTiter GLO. […] Cells were exposed to increasing amounts of each drug for 2 hours. GAPDH1 represents loading control for phospho-ERK and ERK blots. GAPDH2 represents loading control for phosphor-STAT5, STAT5, phospho-S6 and S6. Each experiment was completed in triplicate. Representative images are shown.
(§2) FIG. 5. […] Cells were dosed with inhibitor at increasing log doses (0.1 nM-10 μM) for 48 hours. Cell viability was analyzed through CellTiter GLO.
(§3) MV-4-11 and parental Molm-14 cells were a gift from Dr. Scott Kogan (University of California, San Francisco). HL60 and K562 cell lines were obtained from Charles Sawyers. […] Stable Ba/F3 lines were generated by retroviral infection as previously described (5). All cell lines were tested to be mycoplasma free and human cell lines were authenticated through STR profiling completed at the University of California, Berkeley.
(§4) Each triplicate was either dosed with drug or DMSO vehicle control. Drug dosing was completed at log doses ranging from 0.1 nM-10 μM. Cell viability was assessed after 48 hours using CellTiter GLO (Promega). Viability values were normalized to the vehicle control average. Numerical IC50 values were calculated in GraphPad Prism 7.

Molm14 F691L cells = assay: Cell viability assay (CellTiter GLO), Molm14 F691L; assay type: cell-based, human; details: 48 hours
Method: as §1, §2, §3, §4

Row | activity in cell viability assay (IC50, FIG. 1A/5B), in words (Molm14 D835Y cells) | activity in cell viability assay (IC50, FIG. 1A/5B), in words (Molm14 F691L cells) | Structure (SMILES) | impact on CFU-G counts/growth ([1]; equivalent multiples of Molm14 IC50, 14 days, three healthy donors) | impact on BFU-E counts/growth ([1]; human, 14 days) | maximally tolerated dose [2] [mg/kg]
1 |  |  | CCc1nc(C(N)=O)c(Nc2ccc(N3CCC(N4CCN(C)CC4)CC3)c(OC)c2)nc1NC1CCOCC1 [gilteritinib, reference compound] | substantial impairment in BFU-E and CFU-G counts at 50× and 100×IC50 | substantial impairment in BFU-E and CFU-G counts at 50× and 100×IC50 | 33
2 | severely diminished activity | severely diminished activity | CC(C)(C)c1cc(NC(=O)Nc2ccc(-c3cn4c(n3)sc3cc(OCCN5CCOCC5)ccc34)cc2)no1 [quizartinib, reference compound] |  |  | 
